Results published in ChEMBL document CHEMBL3751785, “Development and structural analysis of adenosine site binding tankyrase inhibitors” (Bioorg Med Chem Lett, 2016).

Molecular target: T1, Protein mono-ADP-ribosyltransferase PARP10 (Homo sapiens, UniProt Q53GL7)
T1 sequence (Q53GL7 whole entry): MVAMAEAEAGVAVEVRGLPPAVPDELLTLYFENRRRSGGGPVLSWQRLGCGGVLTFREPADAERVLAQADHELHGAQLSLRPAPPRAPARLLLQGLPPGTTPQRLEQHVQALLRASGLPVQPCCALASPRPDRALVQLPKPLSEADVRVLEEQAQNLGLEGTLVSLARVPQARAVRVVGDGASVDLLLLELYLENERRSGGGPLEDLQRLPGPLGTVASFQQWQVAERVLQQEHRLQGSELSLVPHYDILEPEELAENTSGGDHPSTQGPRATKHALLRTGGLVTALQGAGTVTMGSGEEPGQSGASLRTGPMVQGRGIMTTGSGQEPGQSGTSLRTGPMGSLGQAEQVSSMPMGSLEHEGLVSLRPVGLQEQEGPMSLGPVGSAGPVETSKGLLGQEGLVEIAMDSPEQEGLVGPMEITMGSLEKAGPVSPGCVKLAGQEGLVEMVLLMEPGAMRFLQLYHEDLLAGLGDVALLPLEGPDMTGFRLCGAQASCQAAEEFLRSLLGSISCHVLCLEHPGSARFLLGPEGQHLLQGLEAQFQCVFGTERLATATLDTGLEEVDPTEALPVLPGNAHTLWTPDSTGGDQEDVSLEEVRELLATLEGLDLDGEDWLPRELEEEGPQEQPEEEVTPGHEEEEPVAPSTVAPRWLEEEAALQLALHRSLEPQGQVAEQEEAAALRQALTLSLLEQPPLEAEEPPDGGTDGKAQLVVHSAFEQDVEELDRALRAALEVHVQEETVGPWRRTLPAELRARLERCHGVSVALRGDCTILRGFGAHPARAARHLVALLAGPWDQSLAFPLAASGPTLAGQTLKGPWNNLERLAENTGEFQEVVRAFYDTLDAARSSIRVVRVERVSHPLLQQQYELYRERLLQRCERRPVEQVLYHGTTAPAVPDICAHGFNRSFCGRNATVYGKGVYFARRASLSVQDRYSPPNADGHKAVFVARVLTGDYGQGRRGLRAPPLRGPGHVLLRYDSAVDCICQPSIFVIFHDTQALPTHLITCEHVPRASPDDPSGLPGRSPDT
Test: Inhibition of human ARTD10 by fluorescence analysis

COc1ccc(C2(CNC(=O)c3ccc(NC(=O)c4ccco4)cc3Cl)CCOCC2)cc1 gave an IC50 greater than 10 µM.
